Measurements from PMC8748556, “CXCR4 peptide-based fluorescence endoscopy in a mouse model of Barrett’s esophagus” (EJNMMI Research, 2022).
Square brackets hold non-standard residues; d marks the D form. Side chains are listed from the residue outwards. Peptide text beside a SMILES is read from it. * marks the point of attachment. X1 = C[N+]1=C(C=CC=CC=C2N(CCCCCC(=O)*)c3ccc(S(=O)(=O)O)cc3C2(C)C)C(C)(C)c2cc(S(=O)(=O)[O-])ccc21; dTyr(3-I) = N[C@H](Cc1ccc(O)c(I)c1)C(=O)O; 2Nal = N[C@@H](Cc1ccc2ccccc2c1)C(=O)O; dNMeOrn = CN[C@H](CCCN)C(=O)O; 4Abz = Nc1ccc(C(=O)O)cc1; dDap = NC[C@@H](N)C(=O)O

Columns and labels:
[1] = format: physicochemical; details: pH 7.4
Method: Given promising data obtained with MK007 in our preclinical mouse model, we performed preliminary in vitro studies on human cell lines. Competition binding studies (IC50) were performed using Jurkat cells (4 × 10^5 cells/sample) and [^125I]FC131 as radioligand. […] To determine the log P of MK007, the corresponding non-iodinated precursor was radioiodinated using the Iodogen method, and the octanol/PBS partition coefficient of [^125I]MK007 was determined using a modified shake-flask-method.

[2] = tested on: dysplastic lesions at the squamocolumnar junction of L2-IL1B mice; format: in vivo, mouse
Method: Five 12-to-16-month-old IL1B mice were intravenously injected into the tail vein with 60 nmol of MK007 diluted in 0.9% NaCl (tot. vol. 150 µL; 400 nmol/mL) and sacrificed 4 h post injection (p.i.) by isoflurane overdosage. One non-injected 12-month-old IL1B mouse served as negative control. The whole stomach and esophagus were then excised and imaged using a homemade ex vivo wide-field fluorescence imaging system. Briefly, the fluorescence images were acquired at different time exposure (0.2, 0.5, 1 and 2 s), using a 670 nm diode laser (B&W tek, Newark, DE, USA) and appropriate bandpass filter (780/10). A back illuminated EM-CCD camera (iXon DU888, Andor, Belfast, Northern Ireland, UK) was then used to capture the signal. The target-to-background ratio (TBR) of the stomach was performed by dividing the fluorescence signal in the squamocolumnar junction (SCJ) area (target lesion) with the adjacent normal gastric glandular tissue (background area) using ImageJ/Fiji software. In the organs, the signal quantification was performed by calculating the corrected total cell fluorescence/CTCF = integrated density – [(area * AVERAGE (mean background)]. For CTCF, three regions of interest (ROIs) without any tissue were used as background.

[3] = tested on: dysplastic lesions of L2-IL1B mice; assay: Fluorescence molecular endoscopy; format: in vivo; details: L2-IL1B mice 12-14 months, 60 nmol i.v., 4 h p.i.; lesion vs normal surrounding esophageal tissue; mean ± SEM, 3 mice, 2-5 lesions per mouse
Method: Three L2-IL1B mice (12–14 months old) were used for fluorescence molecular endoscopy before ex vivo imaging. Endoscopy was performed after sacrificing the mice at 4 h p.i. of MK007 using a homemade system previously developed by our group and optimized for small animal imaging. Briefly, the endoscopy system consisted of a flexible fiberscope (Micrendo-Fiberskop, SCHÖLLY FIBER OPTIC GMBH, Denzlingen, Germany) where both white light (provided by a 250-W halogen lamp, KL-2500 LCD, Schott AG, Mainz, Germany) and fluorescence (fiber coupled continuous wave (CW) laser diode emitting at 670 nm, SLD1332V, Thorlabs, Newton, NJ, USA) are coupled, allowing simultaneous color and near-infrared (NIR) fluorescence endoscopy. Videos in color and fluorescence channel were recorded using a custom-made endoscopy software and stored in AVI file format. Two NaCl-injected IL1B mice (17 and 12 months old) were used as negative controls for the validation of the endoscopy system. […] For quantification of Sulfo-Cy5 signal, single frames or frame sequences showing dysplastic lesions were used and the fluorescence signal from the target lesion and the background were quantified with ImageJ by handmade ROIs. […] The TBR was then calculated by dividing the mean fluorescence intensity from the lesion by the one from the background region.

For `C[C@@H](NC(=O)[C@@H](CCCNC(=N)N)NC(=O)[C@@H](CN)NC(=O)CCCCCN1C(=CC=CC=CC2=[N+](C)c3ccc(S(=O)(=O)[O-])cc3C2(C)C)C(C)(C)c2cc(S(=O)(=O)O)ccc21)C(=O)Nc1ccc(C(=O)NCCC[C@@H]2C(=O)N[C@@H](CCCNC(=N)N)C(=O)N[C@@H](Cc3ccc4ccccc4c3)C(=O)NCC(=O)N[C@H](Cc3ccc(O)c(I)c3)C(=O)N2C)cc1` [MK007] (cyclo([dTyr(3-I)][dNMeOrn]([4Abz-dA-dR-dDap-X1])R[2Nal]G)), the “log P” value [1] was “− 1.83 ± 0.02”, the “Target-to-background ratio (TBR), ex vivo wide-field imaging” value ([2]; L2-IL1B mice 12-16 months, 60 nmol i.v., 4 h p.i., SCJ vs adjacent normal gastric glandular tissue, mean ± SEM, n = 5) was 2.45 ± 0.24 and the “mean target-to-background ratio in dysplastic lesions (ex vivo imaging and endoscopy)” value ([2]; L2-IL1B mice, 4 h after injection, abstract statement covering ex vivo imaging and endoscopy) was over 2. The “Target-to-background ratio (TBR), fluorescence endoscopy” value [3] was 2.13 ± 0.17.
